Literature values as cited in US20250248986A1, “ANTIFUNGAL DRUG INHALATION FORMULATIONS” (priority 2024, published 2025).
Where two headings read alike, the source gives them in different places.

water solubility (neutral conditions)	water solubility (pH 1)	solubility of the free base (pH of about 6.4 or higher)	SMILES
about 1 ng/ml	about 1 μg/ml	–	CCC(C)n1ncn(-c2ccc(N3CCN(c4ccc(OCC5COC(Cn6cncn6)(c6ccc(Cl)cc6Cl)O5)cc4)CC3)cc2)c1=O (racemic) [Itraconazole]
–	–	less than 1 μg/ml	CC[C@@H]([C@H](C)O)n1ncn(-c2ccc(N3CCN(c4ccc(OC[C@@H]5CO[C@@](Cn6cncn6)(c6ccc(F)cc6F)C5)cc4)CC3)cc2)c1=O [Posaconazole]
